The text below walks through data of patent US4904682A, “Treating mycoses with triazolylalkanols” (Bayer Aktiengesellschaft, priority 1987, dated 1990).

The subject of one assay is Candida. In words: Antimycotic in vivo activity (oral) in mouse candidiasis. Further details: species or system Mice of the SPF-CF1 type. The note with it: in words, 25-100 mg/kg. Here is the method: Mice of the SPF-CF1 type are intravenously inoculated with 1-2×10^6 logarithmically growing Candida cells, which have been suspended in physical logical saline solution. One hour before and seven hours after infection, the animals are orally treated with 25-100 mg/kg of body weight of the preparation in each case. Result Untreated animals died 3 to 6 days post infection. The survival rate on the 6th day post infection was about 5% in untreated control animals.

Another assay deals with Trichophyton mentagr. In words: Antimycotic in vitro activity, serial dilution test (MIC). The assay is classed as cell-based, Trichophyton mentagrophytes. The note with it: Sabouraud's test medium, 28-37° C., 96 hours, read-out: MIC values in μg/ml of nutrient medium. How it is done:
(§1) The in vitro tests were carried out in a serial dilution test using bacterial inocula of, on average, 5×10^3 to 10^4 bacteria/ml of substrate. Nutrients used were (a) for Dermatophytes and Hyphomycetes: Sabouraud's test medium (b) for yeasts: meat extract/dextrose broth. The incubation temperature was 28° C. to 37° C., and the incubation period was 24 to 96 hours for yeasts and 96 hours for Dermatophytes and Hyphomycetes.

The test system of another assay is Aspergillus fumigatus. Described as above. The assay is classed as cell-based. The settings on record: Sabouraud's test medium, 28-37° C., 96 hours, read-out: MIC values in μg/ml of nutrient medium. How it is done:
as §1

The test system of the next assay is Torulopsis glabrata. The description is as above. The assay is classed as cell-based. The settings on record: Nakaseomyces glabratus, meat extract/dextrose broth, 28-37° C., 24 to 96 hours, read-out: MIC values in μg/ml of nutrient medium. How it is done: as §1
The test system of another assay is Microsporum canis. Described as above. The format is cell-based. The note with it: Sabouraud's test medium, 28-37° C., 96 hours, read-out: MIC values in μg/ml of nutrient medium. Here is the method:
as §1

A further assay has as its system Candida albicans. Described as above. The format is cell-based. The note with it: meat extract/dextrose broth, 28-37° C., 24 to 96 hours, read-out: MIC values in μg/ml of nutrient medium. Here is the method: as §1
The subject of assay [1] is Dermatophytes, Hyphomycetes and yeasts. In words: Antimycotic in vitro activity, serial dilution test (overall statement). The assay is classed as cell-based. The note with it: in words. Here is the method: as §1

In brackets after ≈: the same amount, converted by molar mass.

On to `CC(C)(C#N)C(O)(COc1ccc(Cl)cc1)Cn1cncn1` (stereo not drawn) [Compound 8], for which the “action in mouse candidiasis compared with compounds (A) and (B)” value in the assay on Candida was “better action than the compounds (A) and (B)”.

Take `CC(C)(C#N)C(O)(CSc1ccc(Br)cc1)Cn1cncn1` (stereo not drawn) [Compound 4]: the MIC in the assay with Trichophyton mentagr. was < 1 µg/mL; in the assay with Aspergillus fumigatus, 4 µg/mL (≈ 10.5 µM); in the assay with Torulopsis glabrata, 8 µg/mL (≈ 21 µM); in the assay on Microsporum canis it was 16 µg/mL (≈ 42 µM); in the assay with Candida albicans, 8 µg/mL (≈ 21 µM). The “antimycotic activity in vitro” value in assay [1] is given as “good antimycotic activity”.

Take `CC(C)(C#N)C(O)(COc1ccc(-c2ccccc2)cc1)Cn1cncn1` (stereo not drawn) [Compound 7]: the MIC in the assay with Trichophyton mentagr. was < 1 µg/mL; in the assay with Aspergillus fumigatus, 2 µg/mL (≈ 5.52 µM); in the assay on Torulopsis glabrata, 16 µg/mL (≈ 44.1 µM); with Microsporum canis, < 1 µg/mL; in the assay with Candida albicans, 2 µg/mL (≈ 5.52 µM). In addition, the “antimycotic activity in vitro” value in assay [1] is “good antimycotic activity”.

Regarding `CC(C)(C#N)C(O)(CCc1ccc(Cl)cc1)Cn1cncn1` (stereo not drawn) [Compound 2], the MIC in the assay on Trichophyton mentagr. was < 1 µg/mL; in the assay on Aspergillus fumigatus it was 16 µg/mL (≈ 50.2 µM); with Torulopsis glabrata, 16 µg/mL (≈ 50.2 µM); with Microsporum canis, 16 µg/mL (≈ 50.2 µM); with Candida albicans, 16 µg/mL (≈ 50.2 µM). Moreover, the “antimycotic activity in vitro” value in assay [1] is “good antimycotic activity”.

On to `CC(C)(C#N)C(O)(CSc1ccc(Cl)cc1)Cn1cncn1` (stereo not drawn) [Compound 5], for which the MIC in the assay with Trichophyton mentagr. is 8 µg/mL (≈ 23.7 µM); in the assay with Aspergillus fumigatus it was 8 µg/mL (≈ 23.7 µM); in the assay with Torulopsis glabrata, 4 µg/mL (≈ 11.9 µM); in the assay on Candida albicans it was 4 µg/mL (≈ 11.9 µM). The “antimycotic activity in vitro” value in assay [1] is reported as “good antimycotic activity”.
